Results taken from patent US11649236B2, “Polycyclic carbamoylpyridone derivative” (Shionogi & Co., Ltd., priority 2018, dated 2023).

test system: HIV; experiment: Anti-HIV activity (MT-4 cells, MTT); assay type: cell-based; details: Human immunodeficiency virus 1, MT4, 96 h, cultured 4 days
Procedure: Serial dilutions of a test sample were prepared in a 96-well microplate (50 μL/well). 2.5×10^5 cells/mL of a MT-4 cell suspension was dispensed at 100 μL/well to the plate containing the test sample. Then, an HIV virus solution was dispensed at 50 μL/well. The plate was mixed with a plate mixer and cultured for 4 days in a CO2 incubator. An MTT (3-(4,5-dimethylthiazol-2-yl)-2,5-diphenyltetrazolium bromide) solution was dispensed at 30 μL/well. The plate was reacted for 1 hour in a CO2 incubator. 150 μL of the supernatant was removed from each well so as not to take up the cells. 150 μL of a cell lysis solution was added to each well and well mixed with a plate mixer until the cells were completely lysed. The absorbance of the mixed plate was measured at two wavelengths of 560 nm and 690 nm with a microplate reader.

| SMILES | EC50 [nM] |
| --- | --- |
| CCN1C(=O)c2c(O)c(=O)c(C(=O)NCc3c(F)cc(F)cc3OC)cn2N2CCCC[C@@H]12 [II-035] | 1.3 |
| C[C@@H]1CCN2[C@@H](C1)N(C)C(=O)c1c(O)c(=O)c(C(=O)NCc3cccc(Cl)c3F)cn12 [II-036] | 3.8 |
| CCN1C(=O)c2c(O)c(=O)c(C(=O)NCc3ccc(F)cc3F)cn2N2[C@@H](COC)CC[C@@H]12 [II-038] | 2 |
| CCN1C(=O)c2c(O)c(=O)c(C(=O)NCc3ccc(F)cc3F)cn2N2CCC(C)(C)C[C@@H]12 [II-039] | 2.9 |
| C[C@H](N1C(=O)c2c(O)c(=O)c(C(=O)NCc3ccc(F)cc3F)cn2N2CCCC[C@@H]12)C(F)(F)F [II-043] | 1.4 |
| CN1C(=O)c2c(O)c(=O)c(C(=O)NCc3ccc(Cl)cc3F)cn2N2CCCC[C@@H]12 [II-045] | 2 |
| CCN1C(=O)c2c(O)c(=O)c(C(=O)NCc3c(F)ccc(C#N)c3F)cn2N2CCCC[C@@H]12 [II-050] | 2.8 |
| CCN1C(=O)c2c(O)c(=O)c(C(=O)NCc3c(F)cc(F)cc3F)cn2N2[C@H](C)CCC[C@@H]12 [II-053] | 1.4 |
| CCN1C(=O)c2c(O)c(=O)c(C(=O)NCc3ccc(F)nc3F)cn2N2CCCC[C@@H]12 [II-057] | 1.7 |
| C[C@H]1CCN2[C@@H](C1)N(C)C(=O)c1c(O)c(=O)c(C(=O)NCc3ccc(Cl)cc3F)cn12 [II-061] | 3.4 |
| CCN1C(=O)c2c(O)c(=O)c(C(=O)NCc3ccnc(Cl)c3F)cn2N2CCCC[C@@H]12 [II-062] | 3.2 |
| CN1C(=O)c2c(O)c(=O)c(C(=O)NCc3cccc(Cl)c3F)cn2N2Cc3ccccc3[C@@H]12 [II-063] | 3.6 |
| CC(C)N1C(=O)c2c(O)c(=O)c(C(=O)NCc3c(F)cc(F)cc3F)cn2N2CC[C@@H](C)C[C@@H]12 [II-064] | 1.2 |
| C[C@H]1C[C@H]2N(C)C(=O)c3c(O)c(=O)c(C(=O)NCc4ccc(Cl)cc4F)cn3N2C1 [II-065] | 4.9 |
| C[C@@H]1CCN2[C@@H](C1)N(C)C(=O)c1c(O)c(=O)c(C(=O)NCc3ccc(Cl)cc3F)cn12 [II-075] | 6.3 |
| CCN1C(=O)c2c(O)c(=O)c(C(=O)NCc3ncc(Cl)cc3F)cn2N2CCCC[C@@H]12 [II-076] | 3.3 |
| CCN1C(=O)c2c(O)c(=O)c(C(=O)NCc3ccc(F)cc3F)cn2N2[C@@H]3CCC[C@@H]3CC[C@@H]12 [II-078] | 1.1 |
| CCN1C(=O)c2c(O)c(=O)c(C(=O)NCc3ccc(F)nc3F)cn2N2CC[C@H](C)C[C@@H]12 [II-081] | 3.1 |
| CCN1C(=O)c2c(O)c(=O)c(C(=O)NCc3ccc(F)cc3F)cn2N2Cc3ccc(Cl)cc3[C@@H]12 [II-084] | 1.8 |

| SMILES | EC50 [nM] |
| --- | --- |
| CCN1C(=O)c2c(O)c(=O)c(C(=O)NCc3ccc(F)cc3F)cn2N2CCC(C)(C)[C@@H]12 [II-085] | 1.3 |
| CCN1C(=O)c2c(O)c(=O)c(C(=O)NCc3ccc(F)cc3F)cn2N2CCN(CCOC)C[C@@H]12 [II-088] | 3.1 |
| C[C@@H]1CCC[C@H]2N(C)C(=O)c3c(O)c(=O)c(C(=O)NCc4ccc(Cl)cc4F)cn3N12 [II-091] | 4.1 |
| CCN1C(=O)c2c(O)c(=O)c(C(=O)NCc3ncc(F)cc3Cl)cn2N2CCCC[C@@H]12 [II-095] | 1.9 |
| CCN1C(=O)c2c(O)c(=O)c(-c3nnc(Cc4ncc(Cl)cc4F)s3)cn2N2CCCC[C@@H]12 [II-098] | 4 |
| CCN1C(=O)c2c(O)c(=O)c(C(=O)NCc3ccc(F)cc3F)cn2N2CCN(Cc3ccccc3)C[C@@H]12 [II-100] | 3 |
| CCN1C(=O)c2c(O)c(=O)c(C(=O)NCc3ccc(F)cc3F)cn2N2CCN(CC3CC3)C[C@@H]12 [II-101] | 1.6 |
| CN1C(=O)c2c(O)c(=O)c(C(=O)NCc3ccnc(Cl)c3F)cn2N2CCCC[C@@H]12 [II-103] | 3.7 |
| CCN1C(=O)c2c(O)c(=O)c(C(=O)NCc3ccc(F)cc3F)cn2N2CCCOC[C@@H]12 [II-107] | 2.3 |
| CCN1C(=O)c2c(O)c(=O)c(C(=O)NCc3ccc(F)cc3F)cn2N2CC=C[C@@H]12 [II-109] | 2.4 |
| CCN1C(=O)c2c(O)c(=O)c(C(=O)NCc3ccc(F)cc3F)cn2N2CCN(C(=O)NC)C[C@@H]12 [II-110] | 2.1 |
| CCN1C(=O)c2c(O)c(=O)c(C(=O)NCc3ccc(F)cc3F)cn2N2CC[C@H](C(F)(F)F)C[C@@H]12 [II-114] | 1.5 |
| C[C@H]1CC[C@H]2N(C)C(=O)c3c(O)c(=O)c(C(=O)NCc4ccc(F)cc4F)cn3N2C1 [II-117] | 2 |
| CCN1C(=O)c2c(O)c(=O)c(C(=O)NCc3ccc(F)cc3F)cn2N2C3CCC(CC3)[C@@H]12 [II-118] | 2.2 |
| CCN1C(=O)c2c(O)c(=O)c(C(=O)NCc3ccc(F)cc3F)cn2N2C[C@H](C)C[C@@H]12 [II-123] | 1.6 |
| CCN1C(=O)c2c(O)c(=O)c(C(=O)NCc3ccc(F)cc3F)cn2N2Cc3cc(Cl)ccc3[C@@H]12 [II-124] | 2.6 |
| CCN1C(=O)c2c(O)c(=O)c(C(=O)NCc3ccc(F)cc3F)cn2N2CCN(C(=O)OC)C[C@@H]12 [II-125] | 1.3 |
| CCN1C(=O)c2c(O)c(=O)c(C(=O)NCc3ccccc3OC(F)F)cn2N2CCCC[C@@H]12 [II-127] | 3.6 |
| CCN1C(=O)c2c(O)c(=O)c(C(=O)NCc3ccccc3OC)cn2N2CCCC[C@@H]12 [II-129] | 1.9 |

Compounds with a lower EC50, results first:

| EC50 [nM] | SMILES |
| --- | --- |
| 0.64 | CCN1C(=O)c2c(O)c(=O)c(C(=O)NCc3ccc(F)cc3F)cn2N2C[C@H]3C[C@H](C3)[C@@H]12 [II-037] |
| 0.84 | CCN1C(=O)c2c(O)c(=O)c(C(=O)NCc3c(F)cc(F)cc3F)cn2N2CC[C@@H](C)C[C@@H]12 [II-044] |
| 0.57 | C[C@@H]1CC[C@H]2N(C)C(=O)c3c(O)c(=O)c(C(=O)NCc4cccc(Cl)c4F)cn3N12 [II-047] |
| 0.62 | CCN1C(=O)c2c(O)c(=O)c(C(=O)NCc3ccc(F)cc3F)cn2N2C[C@H](C)CC[C@@H]12 [II-052] |
| 0.34 | Cc1c(F)ccc(CNC(=O)c2cn3c(c(O)c2=O)C(=O)N(C)[C@@H]2CCCCN23)c1F [II-054] |
| 0.58 | CCN1C(=O)c2c(O)c(=O)c(C(=O)NCc3ccc(F)cc3F)cn2N2CC[C@H](COC)C[C@@H]12 [II-055] |
| 0.83 | CCN1C(=O)c2c(O)c(=O)c(C(=O)NCc3ccc(F)nc3F)cn2N2C[C@@H]3CC[C@@H](C3)[C@@H]12 [II-056] |
| 0.79 | C[C@H]1CCN2[C@@H](C1)N(C)C(=O)c1c(O)c(=O)c(C(=O)NCc3cccc(Cl)c3F)cn12 [II-058] |
| 0.66 | CCN1C(=O)c2c(O)c(=O)c(C(=O)NCc3ccc(F)cc3F)cn2N2C[C@H](OC)CC[C@@H]12 [II-059] |
| 0.62 | CCN1C(=O)c2c(O)c(=O)c(C(=O)NCc3ccc(F)cc3F)cn2N2CCC3(C[C@@H]12)OCCO3 [II-067] |
| 0.61 | CCN1C(=O)c2c(O)c(=O)c(C(=O)NCc3ccc(F)cc3F)cn2N2[C@H](C)CC[C@@H]12 [II-068] |
| 0.9 | CCN1C(=O)c2c(O)c(=O)c(C(=O)NCc3c(F)cc(F)cc3F)cn2N2CC[C@H](C)C[C@@H]12 [II-069] |
| 0.25 | CCN1C(=O)c2c(O)c(=O)c(C(=O)NCc3ccc(F)cc3F)cn2N2CC[C@H](C)[C@@H]12 [II-073] |
| 0.71 | CN1C(=O)c2c(O)c(=O)c(C(=O)NCc3ccc(F)c(F)c3F)cn2N2CCCC[C@@H]12 [II-074] |
| 0.66 | CCN1C(=O)c2c(O)c(=O)c(C(=O)NCc3ccc(F)cc3F)cn2N2Cc3ccc(F)cc3[C@@H]12 [II-079] |
| 0.58 | CCN1C(=O)c2c(O)c(=O)c(C(=O)NCc3c(F)ccc(F)c3F)cn2N2CCCC[C@@H]12 [II-080] |
| 0.74 | CCN1C(=O)c2c(O)c(=O)c(C(=O)NCc3c(F)cccc3F)cn2N2CCCC[C@@H]12 [II-082] |

| EC50 [nM] | SMILES |
| --- | --- |
| 0.95 | CCN1C(=O)c2c(O)c(=O)c(C(=O)NCc3ccc(F)cc3F)cn2N2C[C@@H]3C[C@@H]3[C@@H]12 [II-083] |
| 1 | C[C@@H]1CCN2[C@@H](C1)N(C)C(=O)c1c(O)c(=O)c(C(=O)NCc3ccc(F)cc3F)cn12 [II-086] |
| 0.94 | CC[C@@H]1CC[C@H]2N(CC)C(=O)c3c(O)c(=O)c(C(=O)NCc4ccc(F)cc4F)cn3N12 [II-089] |
| 0.33 | CCN1C(=O)c2c(O)c(=O)c(C(=O)NCc3ccccc3F)cn2N2CCCC[C@@H]12 [II-092] |
| 0.57 | C[C@@H]1CCC[C@H]2N(C)C(=O)c3c(O)c(=O)c(C(=O)NCc4c(F)cc(F)cc4F)cn3N12 [II-094] |
| 0.68 | CCN1C(=O)c2c(O)c(=O)c(C(=O)NCc3ccc(F)cc3F)cn2N2CCOCC[C@@H]12 [II-096] |
| 1 | CCN1C(=O)c2c(O)c(=O)c(C(=O)NCc3c(F)cc(F)cc3F)cn2N2Cc3ccccc3[C@@H]12 [II-097] |
| 0.72 | C[C@H]1CCN2[C@@H](C1)N(C)C(=O)c1c(O)c(=O)c(C(=O)NCc3ccc(F)cc3F)cn12 [II-113] |
| 0.87 | CN1C(=O)c2c(O)c(=O)c(C(=O)NCc3c(F)cc(F)cc3F)cn2N2C[C@@H]3CC[C@@H](O3)[C@@H]12 [II-115] |
| 0.68 | CN1C(=O)c2c(O)c(=O)c(C(=O)NCc3ccc(F)cc3F)cn2N2Cc3ccccc3[C@@H]12 [II-116] |
| 0.54 | COC[C@@H]1CC[C@H]2N(C)C(=O)c3c(O)c(=O)c(C(=O)NCc4ccc(F)cc4F)cn3N12 [II-119] |
| 0.22 | CN1C(=O)c2c(O)c(=O)c(C(=O)NCc3c(F)cc(F)cc3F)cn2N2Cc3ccccc3[C@@H]12 [II-120] |
| 0.71 | C[C@H]1C[C@H]2N(C)C(=O)c3c(O)c(=O)c(C(=O)NCc4ccc(F)cc4F)cn3N2C1 [II-121] |
| 0.61 | CN1C(=O)c2c(O)c(=O)c(C(=O)NCc3ccc(F)cc3F)cn2N2C[C@@H]3CC[C@@H](C3)[C@@H]12 [II-122] |
| 0.45 | CCN1C(=O)c2c(O)c(=O)c(C(=O)NCc3ccc(F)cc3F)cn2N2C[C@@H](OC)CC[C@@H]12 [II-126] |
| 0.72 | CCN1C(=O)c2c(O)c(=O)c(C(=O)NCc3ccc(F)cc3F)cn2N2Cc3cc(F)ccc3[C@@H]12 [II-128] |
